Laboratory results from EP0393104B1, “MEASUREMENT OF PGE 2 (PROSTAGLANDIN E 2) LEVELS IN PATIENTS WITH CHRONIC INFLAMMATORY BOWEL DISEASE” (priority 1987, dated 1989).

Tests used:
[1] = HPLC of ADS, 5-ASA and Ac-5-ASA in faecal dialysates (equilibrium in vivo dialysis of faeces); set-up: species or system patients; settings: for concentration: ulcerative colitis, read-out: Concentrations in faecal dialysates
Experimental: (§1) Before entry, at the two week's visit, and at the six and 12 months' visits equilibrium in vivo dialysis of faeces as well as equilibrium in vivo dialysis of rectum were done prior to endoscopy of rectum and sigmoid colon with biopsies. ADS was administered in gelatin capsules, each containing 250 mg of the powdered drug without additives.
(§2) Equilibrium in vivo dialysis of faeces was done as previously described in detail by pooling the contents of five swallowed dialysis bags following their intestinal transit (faecal dialysate).
(§3) The lower detection limits in serum and in faecal dialysates were 1.0 umol/I and 6.0 umol/l, respectively. Prostaglandin E2 was measured by the radioimmunologic method, referred to above, validated by gas chromatography-mass spectrometry. These measurements were done blindly and independently of the assessment of disease activity and clinicians were unaware of the results until the data had been completed.

PGE2 [2] = assay: Equilibrium in vivo dialysis of rectum with radioimmunoassay of PGE2 (ADS study); set-up: species or system patients; settings: mean±SD
Experimental: as §1
Equilibrium in vivo dialysis of rectum was performed after insertion of a 12-cm-long dialysis bag into the emptied rectum as previously described (K. Lauritsen, L.S. Laursen, K. Bukhave, J. Rask-Madsen, "Effects of topical 5-aminosalicylic acid and prednisolone on prostaglandin E2 and leukotriene B4 levels determined by equilibrium in vivo dialysis of rectum in relapsing ulcerative colitis, Gastroenterology 1986;91:837-844). The bag was left for four hours and its contents (rectal dialysate) were analyzed for concentrations of PGE2 (rectal PGEZ).
as §3

[3] = HPLC of ADS, 5-ASA and Ac-5-ASA in serum; type: in vivo, patients; settings: ulcerative colitis, read-out: Concentrations in serum
Experimental: (§4) Aone year treatment period was planned including scheduled visits at two weeks and at two, four, six, eight, ten, and 12 months, in addition to in-between visits, if needed. Before entry and at each visit the clinical disease activity was assessed (see below) and a laboratory screening was done. This included blood haemoglobin, reticulocyte count, erythrocyte sedimentation rate, leucocyte count, leucocyte differential count, platelet count, serum concentrations of Na, K, Ca, albumin, creatinine, urea, alanine aminotransferase, lactate dehydrogenase, alkaline phosphatase, bilirubin, and plasma prothrombin, in addition to urine analysis for protein and glucose and microscopy for erythrocytes, leukocytes, and casts.
as §3

PGE2 [4] = assay: Equilibrium in vivo dialysis of faeces with radioimmunoassay of PGE2 (ADS study); set-up: species or system patients; settings: mean±SD
Experimental: as §1, §2, §3

ulcerative colitis = settings: human, in vivo, po; cited from earlier work
[5] = tested on: ulcerative colitis and Crohn's colitis; assay: Open one-year dose-escalation study of ADS: efficacy, tolerance and safety; type: in vivo, patients; settings: for patients who experienced a relapse: remaining UC patients
Description: Patients fulfilling the following entry criteria were candidates for the study: (a) proven UC or proven CC; (b) relapsing disease (i.e., a relapse within the past six months) or chronic continous disease activity (i.e. absence of remission (definition: see below) for three months or more); (c) refractory to SAZ (i.e., relapsing disease despite maintenance treatment with SAZ 2 g/day or chronic continous disease despite treatment with glucocorticoids and SAZ) or intolerant of SAZ (i.e., allergic to or otherwise intolerant of SAZ).
The study design was open with an initial dose of ADS 1 g/day (0.5 g b.i.d.), in SAZ intolerant patients. In SAZ refractory patients the initial dose was 2 g/day (1 g b.i.d.). […] In patients on concomitant corticosteroids the dose was gradually tapered and, if possible, the administration was stopped.
as §4
The clinical activity was based on a diary and the objective findings registered by the investigator. To minimize variation among observers each patient was examined on all study days by the same investigator. All days the week preceeding a scheduled visit the patient recorded the number of bowel movements in the diary, in addition to the presence or absence of blood, and graded abdominal pain and general well-being according to W. R. Best, J. M. Becktel, J. W. Singleton, 'Rederived values of the eight coefficients of the Crohn's Disease Activity Index (CDAI)', 1979 Gastroenterology, 77:843-6) for calculation of the Crohn's disease activity index (CDAI). […] Remission in patients with CC was defined as a CDAI <150 and no evidence of inflammation on sigmoidoscopy. […] Due to the open design of the study no further clinical or endoscopic estimations of efficacy were done.

O=C(O)c1cc(N=Nc2ccc(O)c(C(=O)O)c2)ccc1O [Olsalazine, disodium-azodisalicylate]
concentration ([1]; Olsalazine dose/day 1 g (n=7), mean±SD of averages in each patient): 100 ± 140 µM | concentration ([1]; Olsalazine dose/day 2 g (n=20), mean±SD): 340 ± 480 µM | concentration ([1]; Olsalazine dose/day 3 g (n=14), mean±SD): 400 ± 580 µM | concentration ([1]; Olsalazine dose/day 4 g (n=18), mean±SD): 270 ± 410 µM | patients in whom the split ratio was below 90%, at least on one occasion ([1]; of all patients): 28% | Rectal PGE2 levels (PGE2 [2]; Crohn's colitis (n=9), Month 6, Entry 4.0±5.1): 5.0±4.8 (0.4-13.0) ng/ml | Rectal PGE2 levels (PGE2 [2]; Crohn's colitis (n=9), Month 12, Entry 4.0±5.1): 3.0±5.7 (0.1-14.6) ng/ml | Rectal PGE2 levels (PGE2 [2]; Ulcerative colitis, SAZ intolerant, n=8, Month 6, Entry 8.5±15.0): 5.7±11.9 (0.15-32.6) ng/ml | Rectal PGE2 levels (PGE2 [2]; Ulcerative colitis, SAZ intolerant, n=8, Month 12, Entry 8.5±15.0): 1.6±2.0 (0.32-5.3) ng/ml | Rectal PGE2 levels (PGE2 [2]; Ulcerative colitis, SAZ refractory, n=23, Month 6, Entry 16.0±15.3, normal range <0.6, p<0.05): 8.1±12.3 (0.05-42.8) ng/ml | Rectal PGE2 levels (PGE2 [2]; Ulcerative colitis, SAZ refractory, n=23, Month 12, Entry 16.0±15.3): 13.6±15.4 (0.12-49.0) ng/ml | concentration ([3]; Olsalazine dose/day 1 g (n=9), mean±SD of average in each patient): 9.2 ± 3.4 µM | concentration ([3]; Olsalazine dose/day 2 g (n=14), mean±SD): 16 ± 6.8 µM | concentration ([3]; Olsalazine dose/day 3 g (n=20), mean±SD): 22 ± 8.1 µM | concentration ([3]; Olsalazine dose/day 4 g (n=20), mean±SD): 25 ± 11 µM | Fecal PGE2 levels (PGE2 [4]; Crohn's colitis (n=9), Month 6, Entry 1.76±1.94): 0.70±0.68 (0.08-1.81) ng/ml | Fecal PGE2 levels (PGE2 [4]; Crohn's colitis (n=9), Month 12, Entry 1.76±1.94): 1.23±2.06 (0.04-5.39) ng/ml | Fecal PGE2 levels (PGE2 [4]; Ulcerative colitis, SAZ intolerant, n=8, Month 6, Entry 1.09±1.18): 0.48±0.85 (0.04-2.55) ng/ml | Fecal PGE2 levels (PGE2 [4]; Ulcerative colitis, SAZ intolerant, n=8, Month 12, Entry 1.09±1.18, p<0.05): 0.16±0.05 (0.08-0.22) ng/ml | Fecal PGE2 levels (PGE2 [4]; Ulcerative colitis, SAZ refractory, n=23, Month 6, Entry 1.65±1.80, normal range <0.5, p<0.05): 0.44±1.03 (0.05-4.72) ng/ml | Fecal PGE2 levels (PGE2 [4]; Ulcerative colitis, SAZ refractory, n=23, Month 12, Entry 1.65±1.80, p<0.05): 0.77±1.09 (0.06-3.73) ng/ml | loose or watery stools (major adverse effect) (ulcerative colitis): 10% | withdrawals due to drug intolerance ([5]; 40 patients, ADS 1-4 g/day up to one year): No patients were withdrawn due to drug intolerance | treatment failures ([5]; UC patients intolerant of SAZ): one of eight | treatment failures ([5]; UC patients refractory to SAZ, of 23): 12 | slightly increased levels of alanine aminotransferase or alkaline phosphatase ([5]; in vivo): six cases | treatment failures (CDAI <150 without sigmoidoscopic evidence of inflammation never obtained) ([5]; patients with CC): Five of the nine | treatment failures (clinical and sigmoidoscopic remission never obtained) ([5]; patients with UC (n=31)): Thirteen patients | patients who experienced a relapse ([5]; on 1 g/day): four | patients who experienced a relapse ([5]; on 2 g/day): two | patients who experienced a relapse ([5]; on 3 g/day): eight | patients who experienced a relapse ([5]; on 4 g/day): two
